PMC4501412 (Memórias do Instituto Oswaldo Cruz, 2015)

What was measured:
[1] = ref Ferreiro et al. 2002; cited from earlier work
[2] = test system: Bloodstream trypomastigotes of T. cruzi (Y strain); assay: In vitro trypanocidal assay; format: cell-based; details: Trypanosoma cruzi, 24 h, read-out: IC50/24 h
Salmonella typhimurium = details: ref Rosenkranz Jr et al. 1976; cited from earlier work
[3] = test system: DNA damage in human whole blood cells; assay: In vitro alkaline single cell gel electrophoresis; format: cell-based; details: positive control, 160 µM

Cc1ncc([N+](=O)[O-])n1CC(O)CCl (centres unmarked) [Compound 4, ornidazole]
Mutagenicity (in words) [1]: known to be a mutagenic agent

O=C(Cn1ccnc1[N+](=O)[O-])NCc1ccccc1 [Compound 8, benznidazole]
IC50 [2]: 9.7 ± 2.4 µM | Ames test result (Salmonella typhimurium): positive

COS(C)(=O)=O [MMS, Methyl methane-sulfonate]
TAU value (total DNA damage score) [3]: 454.3 ± 9.2 TAU | TAU value (total DNA damage score) ([3]; listed as methyl methane-sulfonate): MI: mutagenicity inde; NA: not applicable; TAU: total arbitrary units for the positive control, methyl methane-sulfonate value was 454.3 ± 9.2.
